Measurements published in publication PMC6405842, “Identification of a novel scaffold for a small molecule GPR139 receptor agonist” (Scientific Reports, 2019).
Like-named read-outs stand apart in the source and are kept apart here.

What was measured:
[1] = biological target: T1, muscarinic acetylcholine receptor M1 (Homo sapiens, UniProt P11229); test: Calcium mobilization counter-screen in CHO-M1 cells; assay type: cell-based; settings: concentration from which the calcium response is nonspecific
T1 construct: host or cells: CHO-k1
T1 sequence (P11229 1-460): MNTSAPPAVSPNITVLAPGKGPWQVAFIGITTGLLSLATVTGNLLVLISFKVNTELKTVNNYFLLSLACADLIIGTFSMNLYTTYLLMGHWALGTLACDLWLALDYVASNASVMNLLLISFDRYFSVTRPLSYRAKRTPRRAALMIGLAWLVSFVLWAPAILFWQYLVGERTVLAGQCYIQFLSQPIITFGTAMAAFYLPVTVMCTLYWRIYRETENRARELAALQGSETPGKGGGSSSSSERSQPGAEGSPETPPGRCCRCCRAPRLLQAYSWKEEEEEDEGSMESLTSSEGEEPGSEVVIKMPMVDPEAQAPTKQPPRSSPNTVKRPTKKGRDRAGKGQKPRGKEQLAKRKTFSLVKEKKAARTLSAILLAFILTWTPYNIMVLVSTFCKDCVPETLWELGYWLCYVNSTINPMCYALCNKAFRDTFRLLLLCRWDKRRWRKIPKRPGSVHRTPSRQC
Method: (§1) All compounds were tested on a CHO-k1 cell line stably expressing GPR139 (CHO-GPR139)[11] kindly provided by H. Lundbeck A/S, Denmark. GPR139-specific responses were assessed using a CHO-k1 cell line stably expressing the muscarinic acetylcholine receptor M1 (CHO-M1) (The Missouri S&T cDNA Resource Center, # CEM100TN00). The CHO-GPR139 cells were grown in Dulbecco’s modified Eagle’s medium (DMEM) F12-Kaighn’s (ThermoFisher Scientific # 21127) supplemented with 10% dialyzed fetal bovine serum (United States origin; ThermoFisher Scientific # 26400), 1% GlutaMAX-I (100X) (ThermoFisher Scientific # 35050061), and 100 units/mL penicillin and 100 µg/mL streptomycin (ThermoFisher Scientific # 15140122) and 1 mg/mL geneticin (ThermoFisher Scientific # 11811031). The CHO-M1 cells were grown in Ham’s F12 (ThermoFisher Scientific # 21765) supplemented with 10% fetal bovine serum (South American origin; ThermoFisher Scientific # 10270) + 100 units/mL penicillin and streptomycin and 0.25 mg/mL geneticin.
The primary screening of 4,000 diverse screening compounds on GPR139, led us to identify 108 initial actives in GPR139-expressing cells. […] We excluded compounds that had (1) an effect on another simultaneously tested GPCR (data not shown), (2) reactive groups, or (3) poor predicted solubility. 52 of the active compounds were re-purchased for validation, which were tested at three concentrations (100, 50 and 25 μM) using the same methodology as in the screening campaign. […] None of the 11 hits promoted calcium mobilization in the M1 receptor cells (data not shown). The 11 hits were then screened in pure agonist mode (i.e., without the presence of 1a) to evaluate if they were agonists or antagonists (Fig. 3 and Supplementary Table S1). All 11 hits were agonists.
When screening the compounds as antagonists they were pre-incubated for 10 min as in the HTS. 33 μL of 3.2 μM 1a on the CHO-GPR139 cells or 20 μM carbachol on the CHO-M1 cells were added automatically after baseline measurements.

GPR139 [2] = biological target: T2, GPR139 (Homo sapiens, UniProt Q6DWJ6); test: Fluo-4 calcium mobilization assay, agonist mode, concentration-response curves in CHO-GPR139 cells; assay type: cell-based; settings: CHO-GPR139 cells; for EC50: at least three independent concentration-response curves in duplicate, read-out: EC50; for Emax ± S.E.M.: normalized to buffer (0%) and 8 μM 1a (100%)
T2 construct: host or cells: CHO-k1
T2 sequence (Q6DWJ6 1-353): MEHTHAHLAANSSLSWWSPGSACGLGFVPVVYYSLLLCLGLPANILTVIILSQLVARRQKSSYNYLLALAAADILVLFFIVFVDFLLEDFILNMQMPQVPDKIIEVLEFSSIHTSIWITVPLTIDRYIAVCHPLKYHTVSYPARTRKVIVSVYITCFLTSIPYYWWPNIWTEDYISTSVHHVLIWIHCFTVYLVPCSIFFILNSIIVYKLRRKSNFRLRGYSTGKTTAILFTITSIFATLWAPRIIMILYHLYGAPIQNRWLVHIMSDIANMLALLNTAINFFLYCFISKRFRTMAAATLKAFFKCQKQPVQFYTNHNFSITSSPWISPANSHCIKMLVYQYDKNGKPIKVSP
Method: as §1
The Fluo-4 Ca^2+-assay was performed as described previously, with minor modifications. After 1 hour incubation with the Fluo-4 dye, the CHO-GPR139 cells were washed with 100 μL HEPES buffer (Hank’s Balanced Salt Solution (HBBS, ThermoFisher Scientific # 14175053) supplemented with 20 mM HEPES, 1 mM MgCl2, 1 mM CaCl2, pH = 7.4) and the compound library was then added in concentrations between 25–63 μM dissolved in HEPES buffer (supplemented with 2.5 mM probenecid and 1% DMSO) and pre-incubated for 10 min at 37 °C. 33 μL of 3.2 μM 1a were added automatically after baseline measurements. […] This set-up allowed us to identify both antagonists and agonists (Fig. 2).
Each compound, for which a concentration response curve was made, was tested at least three times in duplicate measurements. After the incubation with the Fluo-4 dye and a wash, 100 μL HEPES buffer (supplemented with 2.5 mM probenecid) was added to each well and incubated for 10 minutes at 37 °C before recording. 33 μL of compounds (4× concentrated) were added automatically after baseline measurements.
(§2) The Ca^2+ and ERK responses were normalized as indicated and the concentration response curves were fitted by Prism 6 software (GraphPad) using nonlinear regression in a sigmoidal model with variable slope, as has been previously described.

GPR139 [3] = biological target: T2, GPR139; test: Phospho-ERK1/2 HTRF assay in CHO-GPR139 cells; assay type: cell-based; settings: ERK phosphorylation; for pEC50 ± SEM / EC50: CHO-GPR139 cells; for EC50: 5 minute stimulation, read-out: EC50; for Emax ± SEM: expressed relative to FBS positive control
Method: All compounds were tested on a CHO-k1 cell line stably expressing GPR139 (CHO-GPR139)[11] kindly provided by H. Lundbeck A/S, Denmark. GPR139-specific responses were assessed using a CHO-k1 cell line stably expressing the muscarinic acetylcholine receptor M1 (CHO-M1) (The Missouri S&T cDNA Resource Center, # CEM100TN00).
Phospho-ERK measurements were made using the Advanced Phospho-ERK1/2 (Thr202/Tyr204) HTRF kit by Cisbio (Codolet, France). Approximately 24 hours prior to the experiment, CHO-GPR139 cells were plated at 50,000 cells/well onto a 96-well plate and cultured as detailed above. Approximately 6 hours later, the media was aspirated, replaced with 50 μL serum-free media, and the cells were allowed to serum starve overnight. The day of the experiment, serial dilutions of the test compounds and controls were made in serum-free media at 2x final concentration. 50 μL of test compounds were added directly to the appropriate wells for 5 minute stimulation at 37 °C. At this point, the media and compounds were rapidly aspirated, lysis/blocking buffer was added, and cells were lysed on a shaker for 30 minutes at room temperature.
as §2

GPR139 [4] = biological target: T2, GPR139; settings: proposed endogenous GPR139 ligands; cited from earlier work

Row | Molecule | Note: Nonspecific ≥ concentration [1] | pEC50 ± S.E.M. (GPR139 [2]) | EC50 (GPR139 [2]) | Emax ± S.E.M. (GPR139 [2]) | pEC50 ± SEM (GPR139 [3]) | EC50 (GPR139 [3]) | Emax ± SEM (GPR139 [3]) | EC50 (GPR139 [4])
1 | CC(=O)c1c(C)[nH]c(C(=O)CN2C(=O)NC(C)(c3ccc4c(c3)OCCO4)C2=O)c1C (stereo not drawn) [AC123] | Nonspecific ≥ 10 μM | 6.13 ± 0.14 | 0.74 µM | 104 ± 1% |  |  |  | 
2 | CC1(c2ccc3c(c2)OCO3)NC(=O)N(CC(=O)c2ccc(Cl)s2)C1=O (stereo not drawn) [AC134] | Nonspecific ≥ 40 μM | 6.09 ± 0.15 | 0.8 µM | 103 ± 5% |  |  |  | 
3 | CC(C)COCCCNC(=O)NC(C)c1ccc(Cl)cc1Cl (stereo not drawn) [AC183] |  | 6.74 ± 0.19 | 0.18 µM | 110 ± 10% | 7.41 ± 0.25 | 0.039 µM | 64.38 ± 5.28 | 
4 | C=CCN(CC=C)C(=O)CN1C(=O)NC(C)(c2ccc3c(c2)OCCO3)C1=O (stereo not drawn) [AC194] |  | 6.68 ± 0.02 | 0.21 µM | 106 ± 4% | 7.41 ± 0.30 | 0.039 µM | 62.32 ± 6.66 | 
5 | CC1(c2ccc3c(c2)OCO3)NC(=O)N(CC(=O)N2CCc3ccccc32)C1=O (stereo not drawn) [AC197] |  | 6.71 ± 0.14 | 0.19 µM | 103 ± 1% | 7.03 ± 0.14 |  | 78.70 ± 4.05 | 
6 | CCc1cccc2c(C(=O)CN3C(=O)NC(C)(c4ccc5c(c4)OCO5)C3=O)c[nH]c12 (stereo not drawn) [AC206] | Nonspecific ≥ 100 μM | 6.42 ± 0.06 | 0.38 µM | 94 ± 3% |  |  |  | 
7 | CC1Cc2ccccc2N1C(=O)CN1C(=O)NC(C)(c2ccc3c(c2)OCCO3)C1=O (stereo not drawn) [AC208] | Nonspecific ≥ 30 μM | 6.05 ± 0.60 | 0.88 µM | 134 ± 26% |  |  |  | 
8 | CCCCC/C=C/C/C=C/CCCCCCCC(=O)NC(C)c1ccccc1 (stereo not drawn) [AC223] | Nonspecific ≥ 50 μM |  |  |  |  |  |  | 
9 | COc1cc(OC)cc(C(=O)NN2C(=O)NC(C)(c3ccccc3)C2=O)c1 (stereo not drawn) [AC224] |  | 7.03 ± 0.02 | 0.09 µM | 106 ± 1% | 7.51 ± 0.28 | 0.031 µM | 69.37 ± 8.01 | 
10 | COc1cccc(C(=O)CN2C(=O)NC(C)(c3ccc(Cl)cc3)C2=O)c1 (stereo not drawn) [AC225] | Nonspecific ≥ 10 μM | 6.56 ± 0.05 | 0.28 µM | 120 ± 5% |  |  |  | 
11 | ACTH: adrenocorticotropic hormone, proposed endogenous GPR139 ligand (SYSMEHFRWGKPVGKKRRPVKVYPNGAEDESAEAFPLEF; Corticotropin; UniProt P01189 138-176, looked up) |  |  |  |  |  |  |  | 2.1 µM
